ChEMBL document CHEMBL3808326, “Design and synthesis of novel hydroxypyridinone derivatives as potential tyrosinase inhibitors” (Bioorg Med Chem Lett, 2016)
pIC50, pKi: −log10 of the molar value. One block for each compound: values may come before it. Active and inactive are the calls of the source. No cut-off for these calls is given here.

Columns and labels:
Tyrosinase [1] = target: T1, Tyrosinase (Agaricus bisporus, UniProt O42713); assay: Inhibition of monophenolase activity of mushroom tyrosinase using L-tyrosine as substrate incubated for 10 mins by UV-Visible spectrophotometric analysis
T1 sequence (O42713 whole entry): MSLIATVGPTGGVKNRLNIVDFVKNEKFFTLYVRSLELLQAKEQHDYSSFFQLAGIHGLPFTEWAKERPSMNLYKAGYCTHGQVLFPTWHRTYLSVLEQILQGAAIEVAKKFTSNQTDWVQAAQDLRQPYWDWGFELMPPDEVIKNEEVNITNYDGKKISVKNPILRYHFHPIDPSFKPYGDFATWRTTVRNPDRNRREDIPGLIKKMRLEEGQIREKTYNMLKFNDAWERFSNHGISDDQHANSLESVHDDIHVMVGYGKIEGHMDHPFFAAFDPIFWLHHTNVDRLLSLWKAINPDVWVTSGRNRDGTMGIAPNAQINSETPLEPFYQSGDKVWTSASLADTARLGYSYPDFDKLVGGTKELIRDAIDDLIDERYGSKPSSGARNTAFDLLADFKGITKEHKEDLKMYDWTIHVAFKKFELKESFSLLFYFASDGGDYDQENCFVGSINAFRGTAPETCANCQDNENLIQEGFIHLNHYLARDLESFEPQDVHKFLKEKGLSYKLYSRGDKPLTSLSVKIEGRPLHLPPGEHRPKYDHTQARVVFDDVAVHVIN

Tyrosinase [2] = target: T1, Tyrosinase; assay: Inhibition of diphenolase activity of mushroom tyrosinase using L-DOPA as substrate incubated for 10 mins by UV-Visible spectrophotometric analysis
[3] = target: T2, Tyrosinase (Agaricus bisporus) (UniProt O42713); assay: Reversible inhibition of diphenolase activity of mushroom tyrosinase using L-DOPA as substrate at 4.17 to 33.33 uM incubated for 10 mins by UV-Visible spectrophotometric analysis
T2 sequence (whole entry): T1 sequence (O42713 whole entry)

Tyrosinase [4] = target: T1, Tyrosinase; assay: Inhibition of diphenolase activity of mushroom tyrosinase using L-DOPA as substrate assessed as enzyme-inhibitor complex incubated for 10 mins by Lineweaver-Burk plot method
Tyrosinase [5] = target: T1, Tyrosinase; assay: Inhibition of diphenolase activity of mushroom tyrosinase using L-DOPA as substrate assessed as enzyme-substrate-inhibitor complex incubated for 10 mins by Lineweaver-Burk plot method
[6] = target: T2, Tyrosinase (Agaricus bisporus); assay: Competitive-uncompetitive-mixed type inhibition of diphenolase activity of mushroom tyrosinase using L-DOPA as substrate incubated for 10 mins by Lineweaver-Burk plot method
[7] = Copper reducing activity in 0.4 mM cupric sulfate solution assessed as cuprous ion formation up to 0.15 mM after 10 mins by bathocuproinedisulfonic acid dye based spectrophotometric analysis; format: physicochemical
[8] = Copper chelating activity in pH 5 copper sulfate solution at 2.857 mM after 10 mins by tetramethylmurexide dye based assay relative to control; format: physicochemical; details: pH 5, 10 min, 2857 µM
[9] = Copper chelating activity in pH 7.4 copper sulfate solution at 2.857 mM after 10 mins by tetramethylmurexide dye based assay relative to control; format: physicochemical; details: pH 7.4, 10 min, 2857 µM

SMILES: CC(C)C[C@H](NC(=O)OCc1ccccc1)C(=O)OCc1cc(=O)c(O)c[nH]1
- pIC50 (Tyrosinase [1]): 4.54

SMILES: CC(C)[C@H](NC(=O)[C@@H](N)Cc1ccccc1)C(=O)NCc1cc(=O)c(O)c[nH]1
- pIC50 (Tyrosinase [1]): 4.85

SMILES: CC[C@H](C)[C@H](NC(=O)OCc1ccccc1)C(=O)OCc1cc(=O)c(O)c[nH]1
- pIC50 (Tyrosinase [1]): 4.81

SMILES: CC(C)[C@H](NC(=O)OCc1ccccc1)C(=O)OCc1cc(=O)c(O)c[nH]1
- pIC50 (Tyrosinase [1]): 4.90

These reach a higher pIC50 (Tyrosinase [1]). Values come first.

- pIC50 (Tyrosinase [1]): 4.93
SMILES: C[C@H](NC(=O)OCc1ccccc1)C(=O)OCc1cc(=O)c(O)c[nH]1

- pIC50 (Tyrosinase [1]): 5.55
- pIC50 (Tyrosinase [2]): 4.58
- inhibition [3]: Active
- pKi (Tyrosinase [4]): 4.46
- pKi (Tyrosinase [5]): 4.10
- inhibition [6]: Active
SMILES: N[C@@H](Cc1ccccc1)C(=O)N[C@@H](Cc1ccccc1)C(=O)NCc1cc(=O)c(O)c[nH]1

- pIC50 (Tyrosinase [1]): 5.71
- pIC50 (Tyrosinase [2]): 5.05
- inhibition [3]: Active
- pKi (Tyrosinase [4]): 4.77
- pKi (Tyrosinase [5]): 4.66
- inhibition [6]: Active
- Activity [7]: Active
- Activity [8]: 97.52%
- Activity [9]: 88.92%
SMILES: O=C(N[C@@H](Cc1ccccc1)C(=O)OCc1cc(=O)c(O)c[nH]1)OCc1ccccc1

- pIC50 (Tyrosinase [1]): 5.16
SMILES: CC(C)C[C@H](NC(=O)[C@@H](N)Cc1ccccc1)C(=O)NCc1cc(=O)c(O)c[nH]1
